Molecular target: Csd4 (Helicobacter pylori, UniProt B5ZAD9)
Experiment: crystal structure at […] Å
Assay type: biochemical

Ki: 1500 ± 300 nM
Structure (SMILES): CC(=O)N[C@H](CCP(=O)(O)CC(CCC[C@@H](N)C(=O)O)C(=O)O)C(=O)O (mixture of isomers) [compound 1, inhibitor 1]

Reference: article PMC4849550 (ACS chemical biology, 2016)
